# How the values were obtained:
# Assay type in all cases: in vivo
# [1] = tested on: green foxtail (Setaria viridis); assay: post-emergence herbicidal activity, green foxtail; conditions: 1 Kg/Ha, about fourteen days, read-out: post-emergence herbicidal activity (% control) SETVI
# Experimental: (§1) This example sets forth the methods of herbicidal testing conducted on the specific compounds set forth below. Specifically, the compounds referenced below were tested for pre- and post-emergence herbicidal activity using a variety of crops and weeds. The test plants include, but are not limited to, soybean (Glycine max -- var. Winchester), field corn (Zea mays var. Pioneer 3732), wheat (Triticum aestivum var. Lew), morningglory (Ipomea lacunosa or Ipomea hederacea), velvetleaf (Abutilon theophrasti), green foxtail (Setaria viridis), Johnsongrass (Sorghum halepense), blackgrass (Aloepecurus myosuroides), common chickweed (Stellaria media), and common cocklebur (Xanthium strumarium L.).
# (§2) In the post-emergence test, seeds of the plant species named above were planted in flats containing the appropriate soil mixture where they were maintained to allow the seeds to germinate. When the plants in these flats reached the proper stage of growth, flats for the pre-emergence tests were planted in a like manner. The flats containing the post-emergence and pre-emergence test plant species were then sprayed with an appropriately concentrated water/acetone solution of test compound. Once treated the flats were maintained, along with untreated controls, for about fourteen days. All treated plants were then examined for phytotoxicity, which was expressed as percent control where 0 is no effect and 100 is complete control. Effective rates of application for the compounds of the present invention range from 0.001 to 3 kg/ha, more likely from […] to 1 Kg/ha.
# (§3) Herbicidal activity data at selected application rates are in Tables 4 and 5. The test compounds are identified by numbers correspond to those in Table 1.
# (§4) SOY is soybean, WHT is wheat, CRN is corn, ABUTH is velvetleaf, IPOSS is
# (§5) morningglory, STEME is chickweed, XANPE is cocklebur, ALOMY is blackgrass,
# (§6) Rate of application of test compound is 1 Kg/Ha. The definitions as shown under Table 4 apply to Table 5.
# [2] = tested on: morningglory (Ipomea lacunosa or Ipomea hederacea); assay: post-emergence herbicidal activity, morningglory; conditions: Ipomoea, 1 Kg/Ha, about fourteen days, read-out: post-emergence herbicidal activity (% control) IPOSS
# Experimental: as §1, §2, §3, §4, §5, §6
# [3] = tested on: soybean (Glycine max -- var. Winchester); assay: pre-emergence herbicidal activity, soybean; conditions: 1 kg/Ha, about fourteen days, read-out: pre-emergence herbicidal activity (% control) SOY
# Experimental: as §1, §2, §3
# (§7) Rate of application of test compound is 1 kg/Ha
# as §4
# (§8) morningglory, STEME is chickweed, XANPE is cocklebur, ALOMY is blackgrass, […]
# [4] = tested on: field corn (Zea mays var. Pioneer 3732); assay: pre-emergence herbicidal activity, corn; conditions: 1 kg/Ha, about fourteen days, read-out: pre-emergence herbicidal activity (% control) CRN
# Experimental: as §1, §2, §3, §7, §4, §8
# [5] = tested on: velvetleaf (Abutilon theophrasti); assay: pre-emergence herbicidal activity, velvetleaf; conditions: 1 kg/Ha, about fourteen days, read-out: pre-emergence herbicidal activity (% control) ABUTH
# Experimental: as §1, §2, §3, §7, §4, §8
# [6] = tested on: wheat (Triticum aestivum var. Lew); assay: pre-emergence herbicidal activity, wheat; conditions: 1 kg/Ha, about fourteen days, read-out: pre-emergence herbicidal activity (% control) WHT
# Experimental: as §1, §2, §3, §7, §4, §8
# [7] = tested on: common cocklebur (Xanthium strumarium L.); assay: pre-emergence herbicidal activity, cocklebur; conditions: 1 kg/Ha, about fourteen days, read-out: pre-emergence herbicidal activity (% control) XANPE
# Experimental: as §1, §2, §3, §7, §4, §8
# [8] = tested on: soybean (Glycine max -- var. Winchester); assay: post-emergence herbicidal activity, soybean; conditions: 1 Kg/Ha, about fourteen days, read-out: post-emergence herbicidal activity (% control) SOY
# Experimental: as §1, §2, §3, §4, §5, §6
# [9] = tested on: Johnsongrass (Sorghum halepense); assay: post-emergence herbicidal activity, johnsongrass; conditions: 1 Kg/Ha, about fourteen days, read-out: post-emergence herbicidal activity (% control) SORHA
# Experimental: as §1, §2, §3, §4, §5, §6
# [10] = tested on: morningglory (Ipomea lacunosa or Ipomea hederacea); assay: pre-emergence herbicidal activity, morningglory; conditions: Ipomoea, 1 kg/Ha, about fourteen days, read-out: pre-emergence herbicidal activity (% control) IPOSS
# Experimental: as §1, §2, §3, §7, §4, §8
# [11] = tested on: common cocklebur (Xanthium strumarium L.); assay: post-emergence herbicidal activity, cocklebur; conditions: 1 Kg/Ha, about fourteen days, read-out: post-emergence herbicidal activity (% control) XANPE
# Experimental: as §1, §2, §3, §4, §5, §6
# [12] = tested on: field corn (Zea mays var. Pioneer 3732); assay: post-emergence herbicidal activity, corn; conditions: 1 Kg/Ha, about fourteen days, read-out: post-emergence herbicidal activity (% control) CRN
# Experimental: as §1, §2, §3, §4, §5, §6
# [13] = tested on: wheat (Triticum aestivum var. Lew); assay: post-emergence herbicidal activity, wheat; conditions: 1 Kg/Ha, about fourteen days, read-out: post-emergence herbicidal activity (% control) WHT
# Experimental: as §1, §2, §3, §4, §5, §6
# [14] = tested on: Johnsongrass (Sorghum halepense); assay: pre-emergence herbicidal activity, johnsongrass; conditions: 1 kg/Ha, about fourteen days, read-out: pre-emergence herbicidal activity (% control) SORHA
# Experimental: as §1, §2, §3, §7, §4, §8
# [15] = tested on: green foxtail (Setaria viridis); assay: pre-emergence herbicidal activity, green foxtail; conditions: 1 kg/Ha, about fourteen days, read-out: pre-emergence herbicidal activity (% control) SETVI
# Experimental: as §1, §2, §3, §7, §4, §8
# [16] = tested on: velvetleaf (Abutilon theophrasti); assay: post-emergence herbicidal activity, velvetleaf; conditions: 1 Kg/Ha, about fourteen days, read-out: post-emergence herbicidal activity (% control) ABUTH
# Experimental: as §1, §2, §3, §4, §5, §6
# [17] = tested on: common chickweed (Stellaria media); assay: pre-emergence herbicidal activity, chickweed; conditions: 1 kg/Ha, about fourteen days, read-out: pre-emergence herbicidal activity (% control) STEME
# Experimental: as §1, §2, §3, §7, §4, §8
# [18] = tested on: blackgrass (Aloepecurus myosuroides); assay: pre-emergence herbicidal activity, blackgrass; conditions: Alopecurus myosuroides, 1 kg/Ha, about fourteen days, read-out: pre-emergence herbicidal activity (% control) ALOMY
# Experimental: as §1, §2, §3, §7, §4, §8
# [19] = tested on: common chickweed (Stellaria media); assay: post-emergence herbicidal activity, chickweed; conditions: 1 Kg/Ha, about fourteen days, read-out: post-emergence herbicidal activity (% control) STEME
# Experimental: as §1, §2, §3, §4, §5, §6
SMILES,activity at 1000 g/ha [1],activity at 1000 g/ha [2],activity at 1000 g/ha [3],activity at 1000 g/ha [4],activity at 1000 g/ha [5],activity at 1000 g/ha [6],activity at 1000 g/ha [7],activity at 1000 g/ha [8],activity at 1000 g/ha [9],activity at 1000 g/ha [10],activity at 1000 g/ha [11],activity at 1000 g/ha [12],activity at 1000 g/ha [13],activity at 1000 g/ha [14],activity at 1000 g/ha [15],activity at 1000 g/ha [16],activity at 1000 g/ha [17],activity at 1000 g/ha [18],activity at 1000 g/ha [19]
CCOC(=O)CN1Cc2c(-n3c(=O)cc(C(F)(F)F)n(C)c3=O)ccc(Cl)c2C1=O [Compound 7],60%,40%,70%,70%,100%,30%,50%,60%,40%,80%,60%,40%,20%,55%,70%,80%,60%,40%,–
C#CCN1Cc2c(-n3c(=O)cc(C(F)(F)F)n(C)c3=O)ccc(Cl)c2C1=O [Compound 8],100%,100%,100%,100%,100%,100%,100%,100%,100%,100%,100%,100%,100%,100%,100%,100%,100%,100%,–
CN1Cc2c(-n3c(=O)cc(C(F)(F)F)n(C)c3=O)ccc(Cl)c2C1=O [Compound 9],70%,90%,100%,100%,100%,100%,100%,100%,50%,100%,70%,50%,50%,100%,100%,100%,100%,100%,–
Cn1c(C(F)(F)F)cc(=O)n(-c2ccc(Cl)c3c2CN(Cc2ccccc2)C3=O)c1=O [Compound 10],60%,40%,80%,90%,100%,70%,80%,65%,40%,80%,50%,60%,40%,100%,100%,100%,100%,80%,–
CCCCN1Cc2c(-n3c(=O)cc(C(F)(F)F)n(C)c3=O)ccc(Cl)c2C1=O [Compound 11],100%,95%,100%,100%,100%,100%,100%,95%,90%,100%,100%,80%,100%,100%,100%,100%,100%,100%,–
Cn1c(C(F)(F)F)cc(=O)n(-c2ccc(Cl)c3c2CNC3=O)c1=O [Compound 12],100%,75%,100%,100%,100%,100%,100%,95%,60%,100%,95%,70%,70%,100%,100%,100%,100%,100%,–
C=CCON1Cc2c(-n3c(=O)cc(C(F)(F)F)n(C)c3=O)ccc(Cl)c2C1=O [Compound 17],100%,90%,100%,100%,100%,100%,100%,100%,100%,100%,100%,90%,100%,100%,100%,100%,100%,–,–
Cn1c(C(F)(F)F)cc(=O)n(-c2ccc(Cl)c3c2CN(O)C3=O)c1=O [Compound 18],70%,100%,95%,100%,100%,60%,100%,80%,65%,100%,95%,70%,50%,100%,100%,100%,–,–,–
CC(C)N1Cc2c(-n3c(=O)cc(C(F)(F)F)n(N)c3=O)ccc(Cl)c2C1=O [Compound 70],100%,100%,100%,100%,100%,100%,100%,100%,100%,100%,100%,100%,100%,–,100%,100%,100%,100%,100%

# — patent publication US6277847A, “Herbicidal isoindolinonyl-and 3,4-dihydroisoquinolonyl-substituted heterocycles” (FMC Corporation, priority 2000, dated 2001)
